In patent publication US20250154138A1, “Small Molecule IL-17A Modulators” (BeiGene, Ltd., priority 2022, published 2025):
pIC50: −log10 of the molar value.

What was measured:
[1] = target: human IL-17A / human IL-17RA (Homo sapiens (Human), UniProt Q16552); experiment: Human IL-17A biochemical assay (HTRF, blocking of IL-17A binding to IL-17RA); settings: 0.4 nM IL-17A, 0.3 nM IL-17RA, max compound concentration 10 uM
Procedure, shortened: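 Compounds (10-point, 2.7-fold dilution from 10 uM) preincubated 3 h at RT with 0.4 nM human IL-17A, followed by 1 h with 0.3 nM IL-17RA and 1 h with Tb-cryptate/XL665 antibodies; buffer 20 mM HEPES pH 7.5, 0.1% BSA. Inhibition derived from HTRF fluorescence ratio; IC50 by four-parameter logistic fitting.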

[2] = test system: IL-17-induced GROα secretion from HT-29 cells; experiment: GROα release assay in human colorectal adenocarcinoma epithelial cell (HT-29, ELISA); assay type: cell-based; settings: Homo sapiens, HT-29, 48 h, 10 ng/mL IL-17A, highest concentration 10 μM, read-out: Cellular assay HT29 cell/CXCL1 IC50
Procedure, shortened: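 IC50 values come from four-parameter fits of GROα levels, quantified by ELISA (450 nm, standard curve) in supernatants. Compounds, 4-fold serially diluted from 10 μM, were mixed 15 min with IL-17A (10 ng/mL final) before 48 h incubation with HT-29 cells at 37°C.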

Sequence of human IL-17A / human IL-17RA (Q16552 24-155): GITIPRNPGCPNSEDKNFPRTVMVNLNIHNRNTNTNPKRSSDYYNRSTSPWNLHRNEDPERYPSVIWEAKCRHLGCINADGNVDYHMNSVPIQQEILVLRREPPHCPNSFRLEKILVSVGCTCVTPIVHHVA

Structure (SMILES) | pIC50 [1] | pIC50 [2]
CC(C)[C@@H]1CN(C2(C(=O)N(C)C)Cc3ccc(NC(=O)[C@@H](NC(=O)c4ccnn4C)C4CCCCC4)cc3C2)C(=O)N1 (stereo partly drawn) [Example 135, N-((1S)-1-cyclohexyl-2-((2-(dimethylcarbamoyl)-2-((R)-4-isopropyl-2-oxoimidazolidin-1-yl)-2,3-dihydro-1H-inden-5-yl)amino)-2-oxoethyl)-1-methyl-1H-pyrazole-5-carboxamide] | 6.73 | 6.61
CC[C@@H]1CN(C2(C(=O)NC)Cc3ccc(NC(=O)[C@@H](NC(=O)c4ccnn4C)C4CCCCC4)cc3C2)C(=O)N1 (stereo partly drawn) [Example 19, N-((1S)-1-cyclohexyl-2-((2-((R)-4-ethyl-2-oxoimidazolidin-1-yl)-2-(methylcarbamoyl)-2,3-dihydro-1H-inden-5-yl)amino)-2-oxoethyl)-1-methyl-1H-pyrazole-5-carboxamide] | 7.22 | 6.58
Cc1nonc1C(=O)N[C@H](C(=O)Nc1ccc2c(c1)CC(C(=O)NC1CCC(F)(F)CC1)(N1CC3(CC3)CNC1=O)C2)C1CCC(F)(F)CC1 (stereo partly drawn) [Example 191, N-((1S)-1-(4,4-difluorocyclohexyl)-2-((2-((4,4-difluorocyclohexyl)carbamoyl)-2-(6-oxo-5,7-diazaspiro[2.5]octan-5-yl)-2,3-dihydro-1H-inden-5-yl)amino)-2-oxoethyl)-4-methyl-1,2,5-oxadiazole-3-carboxamide] | 7.11 | 6.77
CC(C)[C@@H]1CN(CC2Cc3ccc(NC(=O)[C@@H](NC(=O)c4ccnn4C(C)C)C(C4CC4)C4CC4)cc3N2C)C(=O)N1 (stereo partly drawn) [Example 287, N-((2S)-1,1-dicyclopropyl-3-((2-(((R)-4-isopropyl-2-oxoimidazolidin-1-yl)methyl)-1-methylindolin-6-yl)amino)-3-oxopropan-2-yl)-1-isopropyl-1H-pyrazole-5-carboxamide] | 7.21 | 6.65
CNC(=O)C1(N2C[C@@H](C(C)C)NC2=O)Cc2ccc(NC(=O)C(NC(=O)c3ccnn3C)C3CCc4ccccc4C3)cc2C1 (stereo partly drawn) [Example 128, N-(2-((2-((R)-4-isopropyl-2-oxoimidazolidin-1-yl)-2-(methylcarbamoyl)-2,3-dihydro-1H-inden-5-yl)amino)-2-oxo-1-(1,2,3,4-tetrahydronaphthalen-2-yl)ethyl)-1-methyl-1H-pyrazole-5-carboxamide] | 7.05 | 6.56
CNC(=O)C1(N2CC(C(C)COC)NC2=O)Cc2ccc(NC(=O)[C@@H](NC(=O)c3ccnn3C)C3CCCCC3)cc2C1 (stereo partly drawn) [Example 35, N-((1S)-1-cyclohexyl-2-((2-(4-(1-methoxypropan-2-yl)-2-oxoimidazolidin-1-yl)-2-(methylcarbamoyl)-2,3-dihydro-1H-inden-5-yl)amino)-2-oxoethyl)-1-methyl-1H-pyrazole-5-carboxamide] | 6.53 | 5.69
Cc1nonc1C(=O)N[C@H](C(=O)Nc1ccc2c(c1)CC(c1nc3ccccc3[nH]1)(N1CC3(CC3)CNC1=O)C2)C1CCC(F)(F)CC1 (stereo partly drawn) [Example 184, N-((1S)-2-((2-(1H-benzo[d]imidazol-2-yl)-2-(6-oxo-5,7-diazaspiro[2.5]octan-5-yl)-2,3-dihydro-1H-inden-5-yl)amino)-1-(4,4-difluorocyclohexyl)-2-oxoethyl)-4-methyl-1,2,5-oxadiazole-3-carboxamide] | 6.82 | 7.24
CC(C)n1nccc1C(=O)N[C@H](C(=O)Nc1ccc2c(c1)CC(c1nc3cccc(C(F)(F)F)c3[nH]1)(N1CC3(CC3)CNC1=O)C2)C(C1CC1)C1CC1 (stereo partly drawn) [Example 198, N-((2S)-1,1-dicyclopropyl-3-oxo-3-((2-(6-oxo-5,7-diazaspiro[2.5]octan-5-yl)-2-(7-(trifluoromethyl)-1H-benzo[d]imidazol-2-yl)-2,3-dihydro-1H-inden-5-yl)amino)propan-2-yl)-1-isopropyl-1H-pyrazole-5-carboxamide] | 5.95 | 6.50
Cc1nonc1C(=O)N[C@H](C(=O)Nc1ccc2c(c1)OC(CN1C[C@@H](C(F)(F)F)NC1=O)C2)C(C1CC1)C1CC1 (stereo partly drawn) [Example 255, N-((2S)-1,1-dicyclopropyl-3-oxo-3-((2-(((S)-2-oxo-4-(trifluoromethyl)imidazolidin-1-yl)methyl)-2,3-dihydrobenzofuran-6-yl)amino)propan-2-yl)-4-methyl-1,2,5-oxadiazole-3-carboxamide] | 6.78 | 6.18
CCCC1CN(C2(C(=O)NC)Cc3ccc(NC(=O)[C@@H](NC(=O)c4ccnn4C)C4CCCCC4)cc3C2)C(=O)N1 (stereo partly drawn) [Example 26, N-((1S)-1-cyclohexyl-2-((2-(methylcarbamoyl)-2-(2-oxo-4-propylimidazolidin-1-yl)-2,3-dihydro-1H-inden-5-yl)amino)-2-oxoethyl)-1-methyl-1H-pyrazole-5-carboxamide] | 6.44 | 5.97
CNC(=O)C1(N2CC3(CCCC3)CNC2=O)Cc2ccc(NC(=O)[C@@H](NC(=O)c3ccnn3C)C3CCCCC3)cc2C1 (stereo partly drawn) [Example 147, N-((1S)-1-cyclohexyl-2-((2-(methylcarbamoyl)-2-(8-oxo-7,9-diazaspiro[4.5]decan-7-yl)-2,3-dihydro-1H-inden-5-yl)amino)-2-oxoethyl)-1-methyl-1H-pyrazole-5-carboxamide] | 7.65 | 7.21
CC(C)CNC(=O)C1(N2C[C@@H](C(C)C)NC2=O)Cc2ccc(NC(=O)[C@@H](NC(=O)c3ccnn3C)C3CCCCC3)cc2C1 (stereo partly drawn) [Example 124, N-((1S)-1-cyclohexyl-2-((2-(isobutylcarbamoyl)-2-((R)-4-isopropyl-2-oxoimidazolidin-1-yl)-2,3-dihydro-1H-inden-5-yl)amino)-2-oxoethyl)-1-methyl-1H-pyrazole-5-carboxamide] | 7.72 | 7.49
Cc1nonc1C(=O)N[C@H](C(=O)Nc1ccc2c(c1)CC(C(C)C)(N1CC(C(F)(F)F)NC1=O)C2)C(C1CC1)C1CC1 (stereo partly drawn) [Example 212, N-((2S)-1,1-dicyclopropyl-3-((2-isopropyl-2-(2-oxo-4-(trifluoromethyl)imidazolidin-1-yl)-2,3-dihydro-1H-inden-5-yl)amino)-3-oxopropan-2-yl)-4-methyl-1,2,5-oxadiazole-3-carboxamide] | 6.16 | 5.99
COCC1(N2C[C@@H](C(C)C)NC2=O)Cc2ccc(NC(=O)[C@@H](NC(=O)c3ccnn3C)C(C3CC3)C3CC3)cc2C1 (stereo partly drawn) [Example 245, N-((2S)-1,1-dicyclopropyl-3-((2-((R)-4-isopropyl-2-oxoimidazolidin-1-yl)-2-(methoxymethyl)-2,3-dihydro-1H-inden-5-yl)amino)-3-oxopropan-2-yl)-1-methyl-1H-pyrazole-5-carboxamide] | 7.28 | 7.03
Cn1nccc1C(=O)N[C@H](C(=O)Nc1ccc2c(c1)CC(C(=O)NCc1ccccc1F)(N1CC3(CC3)CNC1=O)C2)C1CCCCC1 (stereo partly drawn) [Example 175, N-((1S)-1-cyclohexyl-2-((2-((2-fluorobenzyl)carbamoyl)-2-(6-oxo-5,7-diazaspiro[2.5]octan-5-yl)-2,3-dihydro-1H-inden-5-yl)amino)-2-oxoethyl)-1-methyl-1H-pyrazole-5-carboxamide] | 7.65 | 8.00
